Data from ChEMBL document CHEMBL4828727, “Antibacterial and antitumoral properties of 1,2,3-triazolo fused triterpenes and their mechanism of inhibiting the proliferation of HL-60 cells” (Eur J Med Chem, 2021).
Converted amounts (≈) assume the structure as drawn. The source made the active and inactive calls. No cut-off for these calls is given here.

Key:
[1] = Antiproliferative activity against human HAP1 cells assessed as inhibition of cell viability measured after 72 hrs by colorimetric MTS viability assay; assay type: functional, cell-based; details: HAP1, 72 h
LN-229 = assay: Antiproliferative activity against human LN-229 cells assessed as inhibition of cell viability measured after 72 hrs by colorimetric MTS viability assay; assay type: functional, cell-based; details: LN-229, 72 h
HCT-116 = assay: Antiproliferative activity against human HCT-116 cells assessed as inhibition of cell viability measured after 72 hrs by colorimetric MTS viability assay; assay type: functional, cell-based; details: HCT-116, 72 h
[2] = Antiproliferative activity against human DND41 cells assessed as inhibition of cell viability measured after 72 hrs by real-time IncuCyte proliferation analysis; assay type: functional, cell-based; details: DND41, 72 h
CAPAN-1 = assay: cells; assay type: functional, cell-based; details: Homo sapiens, CAPAN-1, 72 h
Description: Antiproliferative activity against human CAPAN-1 cells assessed as inhibition of cell viability measured after 72 hrs by colorimetric MTS viability assay

NCI-H460 = assay: cells; assay type: functional, cell-based; details: Homo sapiens, NCI-H460, 72 h
Description: Antiproliferative activity against human NCI-H460 cells assessed as inhibition of cell viability measured after 72 hrs by colorimetric MTS viability assay

HL-60 = assay: cells; assay type: functional, cell-based; details: Homo sapiens, HL-60, 72 h
Description: Antiproliferative activity against human HL-60 cells assessed as inhibition of cell viability measured after 72 hrs by real-time IncuCyte proliferation analysis

K562 = assay: cells; assay type: functional, cell-based; details: Homo sapiens, K562, 72 h
Description: Antiproliferative activity against human K562 cells assessed as inhibition of cell viability measured after 72 hrs by real-time IncuCyte proliferation analysis

Z-138 = assay: cells; assay type: functional, cell-based; details: Homo sapiens, Z-138, 72 h
Description: Antiproliferative activity against human Z138 cells assessed as inhibition of cell viability measured after 72 hrs by real-time IncuCyte proliferation analysis

Jurkat = assay: cells; assay type: functional, cell-based; details: Homo sapiens, 72 h
Description: Cytotoxicity against human Jurkat cells assessed as inhibition of cell viability measured after 72 hrs by real-time IncuCyte proliferation analysis

MV4-11 = assay: cells; assay type: functional, cell-based; details: Homo sapiens, MV4-11, 72 h
Description: Cytotoxicity against human MV4-11cells assessed as inhibition of cell viability measured after 72 hrs by real-time IncuCyte proliferation analysis

Rec1 = assay: cells; assay type: functional, cell-based; details: Homo sapiens, Rec1, 72 h
Description: Cytotoxicity against human REC1 cells assessed as inhibition of cell viability measured after 72 hrs by real-time IncuCyte proliferation analysis

Staphylococcus aureus = assay: Antibacterial activity against Staphylococcus aureus ATCC65385 assessed as growth inhibition after 20 hrs by broth microdilution method; assay type: functional
Escherichia coli = assay: Antibacterial activity against Escherichia coli ATCC47076 assessed as growth inhibition after 20 hrs by broth microdilution method; assay type: functional
[3] = system: Salmonella enterica subsp. enterica; assay: Antibacterial activity against Salmonella enterica subsp.enterica ATCC13076 assessed as growth inhibition after 20 hrs by broth microdilution method; assay type: functional
Listeria innocua = assay: Antibacterial activity against Listeria innocua LMG11387 assessed as growth inhibition after 20 hrs by broth microdilution method; assay type: functional

SMILES | IC50 [1] [µM] | IC50 (LN-229) [µM] | IC50 (HCT-116) [µM] | IC50 [2] [µM] | IC50 (CAPAN-1) [µM] | IC50 (NCI-H460) [µM] | IC50 (HL-60) [µM] | IC50 (K562) [µM] | IC50 (Z-138) [µM] | IC50 (Jurkat) [µM] | IC50 (MV4-11) [µM] | IC50 (Rec1) [µM] | MIC50 (Staphylococcus aureus) | MIC50 (Escherichia coli) | MIC50 [3] | MIC50 (Listeria innocua)
CN[C@@H]1C[C@H]2O[C@@](C)([C@@H]1OC)n1c3ccccc3c3c4c(c5c6ccccc6n2c5c31)C(=O)NC4 [STAUROSPORINE] | 0.0491 | 0.0097 | 0.0481 | 0.0308 |  |  |  |  |  |  |  |  |  |  |  | 
CC1(C)CC[C@]2(C(=O)O)CC[C@]3(C)C(=CC[C@@H]4[C@@]5(C)Cc6nnn(CCc7c[nH]c8ccccc78)c6C(C)(C)[C@@H]5CC[C@]43C)[C@@H]2C1 | > 7.9 | 55.1 | 11.1 | 9.9 | 9.6 | 7.6 | 1.5 | 52.1 | 11.6 | 4.1 | 15.8 | 2.1 | 274 µg/mL (≈ 439 µM) | 387 µg/mL (≈ 622 µM) | inactive | 255 µg/mL (≈ 409 µM)
CC1(C)CC[C@]2(C(=O)O)CC[C@]3(C)C(=CC[C@@H]4[C@@]5(C)Cc6nnn(Cc7cccc8[nH]ccc78)c6C(C)(C)[C@@H]5CC[C@]43C)[C@@H]2C1 | 9.7 | 47.2 | 12.6 | 11 | 6.7 | 10.6 | 9.7 | 68.2 | 9.9 | 5.3 | 22.1 | 2.6 | 180 µg/mL (≈ 296 µM) | 95.8 µg/mL (≈ 157 µM) | 88.7 µg/mL (≈ 146 µM) | 237 µg/mL (≈ 390 µM)
O=C(O)c1cn(C2CC2)c2cc(N3CCNCC3)c(F)cc2c1=O [CIPROFLOXACIN] |  |  |  |  |  |  |  |  |  |  |  |  | 3.41 µg/mL (≈ 10.3 µM) |  | 0.37 µg/mL (≈ 1.12 µM) | 138 µg/mL (≈ 416 µM)
C=C(C)[C@@H]1CC[C@]2(CO)CC[C@]3(C)[C@H](CC[C@@H]4[C@@]5(C)Cc6nnn(Cc7ccc8cc[nH]c8c7)c6C(C)(C)[C@@H]5CC[C@]43C)[C@@H]12 | > 100 | > 100 | > 100 | > 100 | > 100 | > 100 | > 100 | > 100 | > 100 |  |  |  | 233 µg/mL (≈ 392 µM) | 84.7 µg/mL (≈ 142 µM) | 43 µg/mL (≈ 72.3 µM) | 195 µg/mL (≈ 328 µM)
C=C(C)[C@@H]1CC[C@]2(CO)CC[C@]3(C)[C@H](CC[C@@H]4[C@@]5(C)Cc6nnn(Cc7ccc(F)cc7)c6C(C)(C)[C@@H]5CC[C@]43C)[C@@H]12 | 10.3 | > 100 | > 100 | > 100 | > 100 | > 100 | > 100 | > 100 | > 100 |  |  |  | inactive | 56.7 µg/mL (≈ 98.8 µM) | 48.1 µg/mL (≈ 83.8 µM) | inactive
C=C(C)[C@@H]1CC[C@]2(CO)CC[C@]3(C)[C@H](CC[C@@H]4[C@@]5(C)Cc6nnn(Cc7cccc8[nH]ccc78)c6C(C)(C)[C@@H]5CC[C@]43C)[C@@H]12 | > 100 | > 100 | > 100 | > 100 | > 100 | > 100 | > 100 | > 100 | > 100 |  |  |  | inactive | 99.8 µg/mL (≈ 168 µM) | 55.5 µg/mL (≈ 93.3 µM) | 379 µg/mL (≈ 636 µM)
C=C(C)[C@@H]1CC[C@]2(CO)CC[C@]3(C)[C@H](CC[C@@H]4[C@@]5(C)Cc6nnn(CCc7c[nH]c8ccc(OC)cc78)c6C(C)(C)[C@@H]5CC[C@]43C)[C@@H]12 | > 100 | > 100 | > 100 | > 100 | > 100 | > 100 | > 100 | > 100 | > 100 |  |  |  | inactive | 17.7 µg/mL (≈ 27.7 µM) | 17.3 µg/mL (≈ 27 µM) | 429 µg/mL (≈ 672 µM)
C=C(C)[C@@H]1CC[C@]2(CO)CC[C@]3(C)[C@H](CC[C@@H]4[C@@]5(C)CC[C@H](O)C(C)(C)[C@@H]5CC[C@]43C)[C@@H]12 [BETULIN] | > 100 | > 100 | > 100 | > 100 | > 100 | > 100 | > 100 | > 100 | > 100 |  |  |  | 248 µg/mL (≈ 559 µM) | inactive | inactive | 398 µg/mL (≈ 899 µM)
CC1(C)CC[C@]2(C(=O)O)CC[C@]3(C)C(=CC[C@@H]4[C@@]5(C)Cc6nnn(Cc7ccc(Cl)cc7)c6C(C)(C)[C@@H]5CC[C@]43C)[C@@H]2C1 | > 100 | 67.1 | 63.8 | 64.3 | 25.8 | > 100 | 56 | > 100 | 61.5 |  |  |  | 180 µg/mL (≈ 298 µM) | 34.3 µg/mL (≈ 56.7 µM) | 25.2 µg/mL (≈ 41.8 µM) | 367 µg/mL (≈ 608 µM)
C=C(C)[C@@H]1CC[C@]2(CO)CC[C@]3(C)[C@H](CC[C@@H]4[C@@]5(C)Cc6nnn(Cc7ccc(OC)cc7)c6C(C)(C)[C@@H]5CC[C@]43C)[C@@H]12 | > 100 | > 100 | > 100 | > 100 | > 100 | > 100 | > 100 | > 100 | > 100 |  |  |  | inactive | 70.6 µg/mL (≈ 121 µM) | 32.3 µg/mL (≈ 55.1 µM) | inactive
CC1(C)CC[C@]2(C(=O)O)CC[C@]3(C)C(=CC[C@@H]4[C@@]5(C)CC[C@H](O)C(C)(C)[C@@H]5CC[C@]43C)[C@@H]2C1 [OLEANOLIC_ACID] | > 100 | > 100 | 32.4 | 65.5 | 50.1 | > 100 | 36.4 | > 100 | > 100 |  |  |  | 1.16 µg/mL (≈ 2.54 µM) | 392 µg/mL (≈ 859 µM) | inactive | 21.4 µg/mL (≈ 46.7 µM)
C=C(C)[C@@H]1CC[C@]2(CO)CC[C@]3(C)[C@H](CC[C@@H]4[C@@]5(C)Cc6nnn(Cc7ccc8[nH]ccc8c7)c6C(C)(C)[C@@H]5CC[C@]43C)[C@@H]12 | > 100 | > 100 | > 100 | > 100 | > 100 | > 100 | > 100 | > 100 | > 100 |  |  |  | 345 µg/mL (≈ 580 µM) | 96.3 µg/mL (≈ 162 µM) | 62 µg/mL (≈ 104 µM) | 187 µg/mL (≈ 315 µM)
C=C(C)[C@@H]1CC[C@]2(CO)CC[C@]3(C)[C@H](CC[C@@H]4[C@@]5(C)Cc6nnn(CCc7c[nH]c8ccccc78)c6C(C)(C)[C@@H]5CC[C@]43C)[C@@H]12 | > 100 | > 100 | > 100 | > 100 | > 100 | > 100 | > 100 | > 100 | > 100 |  |  |  | inactive | > 20.9 µg/mL | 16.6 µg/mL (≈ 27.3 µM) | inactive
C[C@H]1[C@H](C)CC[C@]2(C(=O)O)CC[C@]3(C)C(=CC[C@@H]4[C@@]5(C)CC[C@H](O)C(C)(C)[C@@H]5CC[C@]43C)[C@H]12 [URSOLIC ACID] | 71.1 | 47.4 | 17.7 | 13.7 | 8.6 | 16.2 | 9.5 | 10.2 | 9.8 |  |  |  | 1.56 µg/mL (≈ 3.42 µM) | inactive | inactive | 27 µg/mL (≈ 59.2 µM)
